Experimental data reported in ChEMBL document CHEMBL1201862, “PubChem BioAssay data set” (2004).
Active and inactive are the calls of the source.

Legend:
[1] = target: T1, Heat shock factor protein 1 (Mus musculus, UniProt P38532); test: decrease of HSF1-responsive luciferase luminescence – cell-based, NIH3T3, dose retest, confirmation (AID 2382); assay type: functional;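 further: NIH3T3 fibroblasts with HSF1-driven luciferase reporter stressed by proteasome inhibitor MG132; luminescence from HSF1-driven luciferase expression after 8 hours of MG132 stress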
T1 sequence (P38532 whole entry): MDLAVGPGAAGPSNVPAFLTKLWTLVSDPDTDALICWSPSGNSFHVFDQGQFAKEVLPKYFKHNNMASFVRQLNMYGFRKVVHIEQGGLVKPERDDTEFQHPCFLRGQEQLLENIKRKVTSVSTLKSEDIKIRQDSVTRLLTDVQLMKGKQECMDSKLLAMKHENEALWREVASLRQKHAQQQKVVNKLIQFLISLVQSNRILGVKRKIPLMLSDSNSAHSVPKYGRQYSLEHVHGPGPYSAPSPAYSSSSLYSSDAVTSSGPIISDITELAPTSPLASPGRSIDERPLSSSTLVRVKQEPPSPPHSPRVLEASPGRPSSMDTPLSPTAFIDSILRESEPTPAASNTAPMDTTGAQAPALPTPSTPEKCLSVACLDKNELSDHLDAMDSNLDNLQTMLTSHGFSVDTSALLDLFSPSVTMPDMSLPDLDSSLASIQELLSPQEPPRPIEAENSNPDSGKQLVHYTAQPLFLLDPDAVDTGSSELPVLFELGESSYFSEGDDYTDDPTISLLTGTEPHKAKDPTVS

[2] = target: G-protein coupled receptor 35 (Homo sapiens, UniProt Q9HC97); test: inhibition of zaprinast-stimulated GPR35 beta-arrestin translocation – imaging, U2OS, beta-arrestin-GFP, zaprinast agonist, primary screen (AID 2058); assay type: functional;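 further: antagonist potency meaning inhibition of agonist-induced arrestin redistribution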
Chain of G-protein coupled receptor 35 (Q9HC97 whole entry): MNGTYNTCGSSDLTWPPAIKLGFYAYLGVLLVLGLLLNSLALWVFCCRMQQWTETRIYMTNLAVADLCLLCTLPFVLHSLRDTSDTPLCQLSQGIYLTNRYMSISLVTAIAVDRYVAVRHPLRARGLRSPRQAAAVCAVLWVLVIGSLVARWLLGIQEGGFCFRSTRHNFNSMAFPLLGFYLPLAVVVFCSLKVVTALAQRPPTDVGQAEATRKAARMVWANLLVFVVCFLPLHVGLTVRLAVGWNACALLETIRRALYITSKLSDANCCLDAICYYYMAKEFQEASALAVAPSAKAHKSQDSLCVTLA

Tumor necrosis factor = Tumor necrosis factor (Homo sapiens, UniProt P01375); test: analog potency on TNFa NF-kB signaling – cell-based, revised, SAR follow-up (AID 2337); assay type: functional
Chain of Tumor necrosis factor (P01375 whole entry, the tested form may be a part): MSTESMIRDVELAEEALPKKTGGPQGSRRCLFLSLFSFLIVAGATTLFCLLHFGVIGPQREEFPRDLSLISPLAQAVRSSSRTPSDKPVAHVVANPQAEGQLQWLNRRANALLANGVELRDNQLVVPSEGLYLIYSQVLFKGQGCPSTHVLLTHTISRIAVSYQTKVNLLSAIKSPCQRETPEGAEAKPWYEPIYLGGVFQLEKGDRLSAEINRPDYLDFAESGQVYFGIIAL

[3] = target: T2, Nucleotide-binding oligomerization domain-containing protein 2 (Homo sapiens, UniProt Q9HC29); test: PubChem AID 2334; assay type: functional
T2 sequence (Q9HC29 whole entry, the tested form may be a part): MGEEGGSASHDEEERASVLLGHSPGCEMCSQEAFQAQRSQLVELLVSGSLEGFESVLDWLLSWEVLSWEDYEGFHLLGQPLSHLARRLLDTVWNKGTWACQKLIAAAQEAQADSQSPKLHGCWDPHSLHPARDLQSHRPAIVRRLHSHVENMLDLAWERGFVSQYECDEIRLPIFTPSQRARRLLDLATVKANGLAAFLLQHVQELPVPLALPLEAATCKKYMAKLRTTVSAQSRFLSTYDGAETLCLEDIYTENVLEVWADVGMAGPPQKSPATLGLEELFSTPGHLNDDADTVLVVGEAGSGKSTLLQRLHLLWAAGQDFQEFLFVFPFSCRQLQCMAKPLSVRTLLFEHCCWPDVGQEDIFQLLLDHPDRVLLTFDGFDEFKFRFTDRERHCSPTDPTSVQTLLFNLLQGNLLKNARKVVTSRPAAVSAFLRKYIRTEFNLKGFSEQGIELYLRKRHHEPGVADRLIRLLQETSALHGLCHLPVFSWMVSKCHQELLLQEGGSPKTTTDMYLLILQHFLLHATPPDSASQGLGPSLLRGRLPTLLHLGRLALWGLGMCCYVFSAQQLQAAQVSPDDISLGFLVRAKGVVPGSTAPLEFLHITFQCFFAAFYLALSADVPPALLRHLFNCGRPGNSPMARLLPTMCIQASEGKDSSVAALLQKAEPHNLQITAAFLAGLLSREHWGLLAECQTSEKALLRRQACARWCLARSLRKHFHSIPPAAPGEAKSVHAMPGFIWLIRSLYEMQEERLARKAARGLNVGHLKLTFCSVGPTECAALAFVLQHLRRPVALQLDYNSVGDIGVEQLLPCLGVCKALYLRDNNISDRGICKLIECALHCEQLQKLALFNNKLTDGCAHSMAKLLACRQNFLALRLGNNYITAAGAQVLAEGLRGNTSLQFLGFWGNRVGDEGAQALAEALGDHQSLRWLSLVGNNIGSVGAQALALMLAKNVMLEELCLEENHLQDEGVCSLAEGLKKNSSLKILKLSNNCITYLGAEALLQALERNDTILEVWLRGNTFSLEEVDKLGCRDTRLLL

HEK293 [4] = test: NOD2 signaling inhibitors in MDP-stimulated cells, cell-based, uHTS, luminescence (AID 2001); assay type: functional; settings: Homo sapiens
HEK293 [5] = test: cells; settings: Homo sapiens
[6] = target: T2, Nucleotide-binding oligomerization domain-containing protein 2; test: inhibition of NOD2-driven NF-kB reporter – cell-based, luminescence, uHTS, HEK293 (AID 1566); assay type: functional
HEK293 [7] = test: cells; assay type: functional, cell-based; settings: Homo sapiens
HEK293 [8] = test: cells; assay type: functional, cell-based; settings: Homo sapiens; remark: listed apart in the source
HEK293 [9] = test: cells; assay type: functional, cell-based; settings: Homo sapiens; remark: listed apart in the source
Nonstructural protein 1 = Nonstructural protein 1 (Influenza A virus, UniProt Q194T2); assay type: functional, Influenza A virus (A/California/07/2009(H1N1))
Chain of Nonstructural protein 1 (Q194T2 whole entry): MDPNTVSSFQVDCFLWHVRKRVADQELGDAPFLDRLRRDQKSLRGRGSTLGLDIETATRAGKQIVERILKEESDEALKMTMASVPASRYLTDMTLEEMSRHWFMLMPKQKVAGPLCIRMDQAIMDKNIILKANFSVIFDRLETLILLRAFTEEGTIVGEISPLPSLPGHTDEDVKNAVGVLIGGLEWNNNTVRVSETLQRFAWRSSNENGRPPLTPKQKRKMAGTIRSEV

HEK293 [10] = test: inhibition of NOD1-driven NF-kB reporter – cell-based, luminescence, uHTS, primary screen (AID 1578); assay type: functional; settings: Homo sapiens
[11] = target: T3, Nucleotide-binding oligomerization domain-containing protein 1 (Homo sapiens, UniProt Q9Y239); test: blockers of NOD1 pathway activity – revised, SAR follow-up (AID 2333); assay type: functional
T3 sequence (Q9Y239 whole entry): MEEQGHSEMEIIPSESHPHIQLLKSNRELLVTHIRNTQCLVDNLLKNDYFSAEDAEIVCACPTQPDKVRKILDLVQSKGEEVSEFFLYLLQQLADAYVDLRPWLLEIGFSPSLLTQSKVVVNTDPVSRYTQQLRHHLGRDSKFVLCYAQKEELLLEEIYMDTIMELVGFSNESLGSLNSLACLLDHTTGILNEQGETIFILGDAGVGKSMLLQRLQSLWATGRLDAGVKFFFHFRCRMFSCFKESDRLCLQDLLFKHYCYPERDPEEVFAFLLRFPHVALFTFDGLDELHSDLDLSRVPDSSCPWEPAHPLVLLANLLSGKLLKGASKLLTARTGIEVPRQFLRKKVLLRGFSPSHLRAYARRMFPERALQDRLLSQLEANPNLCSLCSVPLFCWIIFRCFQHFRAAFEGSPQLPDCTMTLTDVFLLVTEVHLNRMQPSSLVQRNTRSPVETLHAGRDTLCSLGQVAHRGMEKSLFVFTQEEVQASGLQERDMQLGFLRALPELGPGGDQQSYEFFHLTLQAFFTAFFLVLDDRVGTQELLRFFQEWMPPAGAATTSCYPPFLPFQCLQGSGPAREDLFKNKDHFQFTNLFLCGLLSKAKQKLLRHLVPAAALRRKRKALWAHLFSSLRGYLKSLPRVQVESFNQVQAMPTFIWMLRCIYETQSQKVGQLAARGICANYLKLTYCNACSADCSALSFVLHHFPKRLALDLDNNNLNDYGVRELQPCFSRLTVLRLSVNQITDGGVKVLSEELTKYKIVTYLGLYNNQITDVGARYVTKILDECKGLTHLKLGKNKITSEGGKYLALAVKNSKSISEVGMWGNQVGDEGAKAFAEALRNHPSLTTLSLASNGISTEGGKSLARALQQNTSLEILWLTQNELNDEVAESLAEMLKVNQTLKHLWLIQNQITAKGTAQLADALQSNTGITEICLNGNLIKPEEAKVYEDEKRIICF

Hexokinase HKDC1 = target: T4, Hexokinase HKDC1 (Homo sapiens, UniProt Q2TB90); test: inhibition of HKDC1 glucose phosphorylation – biochemical, W721R variant, dose response (AID 504729); assay type: functional
T4 sequence (Q2TB90 whole entry): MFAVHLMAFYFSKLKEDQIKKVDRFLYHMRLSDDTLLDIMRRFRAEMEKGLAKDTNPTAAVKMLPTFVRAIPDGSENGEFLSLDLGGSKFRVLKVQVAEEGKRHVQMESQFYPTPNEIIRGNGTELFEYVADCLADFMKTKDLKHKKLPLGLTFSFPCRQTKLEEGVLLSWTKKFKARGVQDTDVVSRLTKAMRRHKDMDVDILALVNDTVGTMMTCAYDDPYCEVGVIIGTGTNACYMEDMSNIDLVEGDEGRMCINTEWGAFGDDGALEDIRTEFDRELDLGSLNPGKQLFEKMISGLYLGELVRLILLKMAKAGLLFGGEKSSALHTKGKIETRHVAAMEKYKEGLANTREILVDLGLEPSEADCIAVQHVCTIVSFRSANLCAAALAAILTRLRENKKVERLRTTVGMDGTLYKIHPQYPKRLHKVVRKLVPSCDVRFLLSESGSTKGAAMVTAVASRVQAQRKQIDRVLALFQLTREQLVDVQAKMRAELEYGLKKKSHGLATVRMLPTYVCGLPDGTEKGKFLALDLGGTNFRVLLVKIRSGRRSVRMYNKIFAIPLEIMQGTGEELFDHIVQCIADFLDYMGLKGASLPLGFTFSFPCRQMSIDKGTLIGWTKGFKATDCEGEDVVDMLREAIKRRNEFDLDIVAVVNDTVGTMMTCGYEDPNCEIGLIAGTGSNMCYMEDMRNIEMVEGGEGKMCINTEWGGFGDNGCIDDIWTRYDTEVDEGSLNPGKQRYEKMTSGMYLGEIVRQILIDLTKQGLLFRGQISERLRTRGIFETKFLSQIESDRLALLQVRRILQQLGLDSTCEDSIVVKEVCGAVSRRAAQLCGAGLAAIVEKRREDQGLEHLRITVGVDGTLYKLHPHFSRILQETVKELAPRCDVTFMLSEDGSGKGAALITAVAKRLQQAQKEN

Row | SMILES | IC50 (Tumor necrosis factor) | IC50 [3] | IC50 (HEK293 [5]) | IC50 [11] | other results
1 | CC(=O)c1ccc(NC(=O)C(C)n2nc(-c3ccccc3)c3cc(Cl)ccc32)cc1 (configuration not stated) | – | – | – | – | EC50 [1]: > 195 µM (not active); IC50 [2]: 1.78 µM (active)
2 | N#CC(c1ccccc1)c1ccc2c(C(F)(F)F)cc(C(F)(F)F)nc2n1 (configuration not stated) | 5.88 µM (active) | 3.99 µM (active) | > 20 µM (inactive) | 3.71 µM (active) | IC50 (HEK293 [4]): > 20 µM (inactive); EC50 [6]: 13.4 µM (active); IC50 (HEK293 [7]): > 20 µM (inactive); IC50 (HEK293 [8]): > 20 µM (inactive); IC50 (HEK293 [9]): 15.4 µM (active); IC50 (Nonstructural protein 1): 21.3 µM (active); EC50 (HEK293 [10]): 4.36 µM (active)
3 | Cc1cc(C(=O)NC2CCCc3c2cnn3-c2ccccc2F)n(C)n1 (configuration not stated) | > 20 µM (inactive) | > 20 µM (inactive) | > 20 µM (inactive) | 0.146 µM (active) | –
4 | O=C(Nc1ccc(Cl)cc1)c1ccc(CCN2CCc3ccccc3C2)cc1 | > 20 µM (inactive) | > 20 µM (inactive) | > 20 µM (inactive) | > 20 µM (inactive) | –
5 | COc1ccc2cc(CCNC(=O)c3ccc(S(=O)(=O)N4CCCC4)cc3)c(O)nc2c1 | – | – | – | – | IC50 (Hexokinase HKDC1): 7.58 µM (active)
